Source: patent publication US20100099719A1, “COMPOSITION AND METHOD FOR TREATING PROTEINURIA” (DIEREPHARMA, INC., priority 2008, published 2010)
Where two headings read alike, the source gives them in different places.

Legend:
[1] = test system: p38; assay: LPS-induced p38 activation in RAW264.7 macrophages (Western blot, phospho-p38); format: cell-based, mouse; details: RAW264.7 cells pretreated 100 and 500 μg/ml, 4 h; LPS 10 ng/ml, 30 min
Method: Mouse macrophage RAW264.7 cells were pretreated with AKF-PD (100 and 500 μg/ml, 4 h) or PFD (100 and 500 μg/ml, 4 h) and then exposed to LPS (10 ng/ml, 30 min). Total cell lysates were processed by SDS-PAGE and membranes blotted with a phosphospecific p38 and normalized with p38.
The MAPK family of proteins comprises of three-tiered cascades of Erk1/2, p38, and JNK. The p38 kinase is activated by phosphorylation of a conserved Thr-Gly-Tyr motif in the activation loop. The activated p38 is then able to phosphorylate a wide variety of targets in the cytoplasm and nucleus, resulting in cellular responses such as apoptosis, inflammation, and fibrosis. We first analyzed the anti-inflammatory properties of AKF-PD in p38 signaling in lipopolysaccharide (LPS)-stimulated mouse macrophages RAW264.7 cells. Cells are pre-treated with AKF-PD or pirfenidone (PFD) for 4 hours and then stimulated by treatment with LPS. […] No effects on total p38 protein levels were observed showing that AKF-PD and PFD have no effect on protein stability. […] The potential upstream targets for AKF-PD include upstream kinases MAPKK3 (MKK3) and MAPKK6 (MKK6).

[2] = test system: TNF-α mRNA; assay: LPS-stimulated TNF-α mRNA synthesis in RAW264.7 macrophages (real time PCR); format: cell-based, mouse; details: LPS 10 ng/ml 20 h; for inhibition of LPS-stimulated TNF-α mRNA synthesis: dose of 500 μg/ml; for inhibition on LPS-stimulated TNF-α mRNA synthesis: pre-treated 4 h at 10, 100, 500 μg/ml
Method: Mouse macrophage RAW264.7 cells were pre-treated with AKF-PD or PFD for 4 hours at the following doses: 0, 10 μg/ml, 100 μg/ml, and 500 μg/ml. Cells are then stimulated by treatment with LPS at 10 ng/ml for 20 hours. Expression of TNF-α mRNA is assayed by a quantitative real time PCR analysis using the TaqMan PCR core reagent kit (Applied Biosystems). TNF-α gene expression in the control non-treated cells was taken as 1 and regarded as control. All the other values were expressed as fold increase of the control. The mouse beta actin gene was used as endogenous control. Each column with error bar represents the mean mRNA level±SD of duplicate samples. Statistical comparisons for all three AKF-PD doses relative to control indicate p<0.01; PFD at the doses of 100 and 500 μg/ml relative to control indicate P<0.01.
We next investigated the effect of AKF-PD on TNF-α transcription.

[3] = test system: TNF-α; assay: LPS-stimulated TNF-α protein synthesis and secretion in RAW264.7 cells (ELISA); format: cell-based, mouse; details: LPS 100 ng/ml 8 h; for inhibition at 300 µg/mL: dose of 300 μg/ml
Method: RAW264.7 cells were pre-treated with AKF-PD for 4 hours at the following doses: 0, 30 μg/ml, 100 μg/ml, and 300 μg/ml. Cells were then stimulated by the treatment with LPS at 100 ng/ml for 8 hours. Cell lysate was prepared from the harvested cells. Media from the cell culture were collected, concentrated 10-fold. Both cell lysate (B) and media (A) were subjected to ELISA assay (OptEIA™) specific for mouse TNF-α according to the manufacturer's instructions (BD Biosciences). Each column with error bar represents the average of triplicate TNF-α assay results and the standard deviation (SD). Statistical comparisons for AKF-PD treated cells relative to the controls indicate P<0.001 for secreted levels (A) at all three doses; and P<0.01 for cellular levels (B) at doses of 100 and 300 μg/ml, respectively.
The effect of AKF-PD on TNF-α protein synthesis and secretion was analyzed in LPS-stimulated RAW264.7 cells. Cells were pretreated with AKF-PD and then stimulated by LPS. Both secreted and cellular levels of TNF-α protein were determined. […] Therefore, the exposure of RAW264.7 cells to AKF-PD exerted a significant and dose-dependent suppression of levels of both cell-associated and secreted TNF-α protein.

[4] = test system: streptozotocin-induced diabetic rats; assay: Streptozotocin-induced diabetic nephropathy in rats; format: in vivo, Sprague-Dawley rats
Method: Diabetic kidney disease in the rat was induced by streptozotocin (STZ) to test the effectiveness of 5-methyl-2(1H)-pyridone (AKF-PD) in preserving kidney function by reducing the level of proteinuria.
Diabetic nephropathy was induced in Sprague-Dawley rats with a single intravenous injection of STZ (45 mg/kg). Streptozotocin was injected in a single dose of 45 mg/kg, i.v., to rats (Male Sprague-Dawley rats (200-250 g). Age-matched control rats received citrate buffer and were used in parallel with diabetic animals. Two days after STZ injection, plasma glucose levels were measured. Rats having plasma glucose levels>250 mg/dL after 4 weeks were selected for the study. Control and diabetic rats were divided into two groups, consisting of 6 animals each. AKF-PD was suspended in 0.5% sodium carboxy methylcellulose (CMC). From 4 to 8 weeks after the initial STZ injection, the first group of control animals received vehicle, and the second group received a suspension of AKF-PD (500 mg/kg per day) orally. Similarly, one group of diabetic rats received vehicle and the second group received AKF-PD (500 mg/kg per day). At the end of 8th week, rats were kept individually in metabolic cages for 24 h to collect urine for the measurements. Renal function was assessed by measuring plasma and urine levels of creatinine and urea and urine albumin excretion. Plasma glucose levels were also measured at 4 weeks and at the end of the experiment to investigate the effect of AKF-PD on glucose levels. Urinary proteins were measured by Bio-Rad protein assay (Bio-Rad, Hercules, Calif.). Blood urea nitrogen and creatinine levels were measured using Beckman analyzers (BUN Analyzer II, and Creatinine Analyzer II Beckman Instruments Inc., Brea, Calif.).

[5] = test system: rat UUO model; assay: Unilateral ureteral obstruction (UUO) model, tubulointerstitial injury score; format: in vivo, SD rats; details: UUO rats; for Tubulointerstitial injury score (TIS): 500 mg/kg/d by gavage
Method: Kidney damage and fibrosis were induced by Unilateral Ureteral Obstruction in rat. The reno-protective effect of AKF-PD was evaluated in the rat UUO model.
Fixed tissues were dehydrated in graded alcohol and embedded in paraffin. Sections were stained with hematoxylin & eosin (HE) for general histology. Injury score was evaluated. On Day 7, the kidneys of rats subjected to ureteral obstruction developed a conspicuous tubulointerstitial injury characterized by tubular dilatation and atrophy, interstitial inflammation, and a marked interstitial fibrosis. The damage was more prominent on Day 15. Renal injury was ameliorated after treatments with AKF-PD as indicated by the lower tubulointerstitial injury scores and interstitial fibrosis expansion of these groups, with P<0.05 for all comparisons (Table 2).
Table 2. Comparison of histological scores for interstitial compartment. Eight weeks old male SD rats (180 g ˜220 g) were randomly divided into sham surgical group, disease model UUO group, and AKF-PD (500 mg/kg/d) group. […] The animals of the sham surgical group experienced the same surgical procedure except the ligation step. AKF-PD was administrated by gavage from one day prior to the procedure to 15 days post surgical procedure. Normal saline was administrated in a similar fashion to the rats in the groups of disease model and sham surgical. The animals were sacrificed 15 days after surgical procedure and their left kidney were removed for pathological (HE staining) examination. Histological scoring for interstitial compartment was done according to Radford's method (Predicting renal outcome in IgA nephropathy. J. Am. Soc. Nephrology, 1997; 8:199-207).

[6] = test system: TGF-β; assay: TGF-β protein expression in kidney of rat UUO model (Western blot, densitometry); format: in vivo; details: obstructed kidney
Description: A. Western analysis of TGF-β protein expression. Two rats were sacrificed from groups of control sham operated, UUO, and UUO+AKF-PD at day 7 and day 15. Total protein was extracted from the kidney samples and subjected to Western analysis of TGF-β. The protein loading was normalized with actin. Lane 1, control sham at day 7; lane 2, control sham at day 15; lane 3, UUO at day 7; lane 4, UUO+AKF-PD at day 7; lane 5, UUO at day 15; lane 6, UUO+AKF-PD at day 15. B. Comparison of the intensity of bands on a Western blot by densitometry. The bands were scanned by densitometer and expressed as a fold increase over control sham operated rat at day 7, which was taken as 1.
TGF-β is a pro inflammatory cytokine and its overproduction plays critical role in tissue fibrosis. Using UUO model, we analyzed the effect of AKF-PD on TGF-β protein expression by Western blot. […] Densitometry analyses of the intensity of the bands indicate that TGF-β protein expression in obstructed kidneys was increased by 4.9- and 6.5-fold than those in the Sham group on Days 7 and 15, respectively.

[7] = test system: rat renal fibroblasts; details: in vitro; cited from earlier work
[8] = test system: patients with focal segmental glomerulosclerosis; details: cited from earlier work
[9] = test system: mild chronic anti-GBM nephritis in rats; details: rat model of nephritis; cited from earlier work
[10] = DN (diabetic) rats + AKF-PD 500 mg/kg per day p.o., 4 weeks, mean ± SEM (n = 6)

Cc1ccc(=O)n(-c2cccc(F)c2)c1 [AKF-PD, 1-(3′-Fluorophenyl)-5-Methyl-2(1H)-Pyridone]
LPS-induced p38 activation (phosphorylation) [1]: significantly blocked
total p38 protein levels [1]: No effects
inhibition of LPS-stimulated TNF-α mRNA synthesis [2]: Approximately 50%
inhibition on LPS-stimulated TNF-α mRNA synthesis [2]: dose-dependent inhibition
inhibition on TNF-α protein levels ([3]; 30, 100, 300 μg/ml pre-treatment 4 h): dose-dependent inhibition
inhibition at 100 µg/mL ([3]; Mus musculus, dose of 100 μg/ml, read-out: inhibition of secreted levels of TNF-α): 64%
inhibition at 300 µg/mL ([3]; Mus musculus, read-out: inhibition of cellular levels of TNF-α): ~50%
inhibition at 300 µg/mL ([3]; Mus musculus, read-out: inhibition of secreted levels of TNF-α): 89%
Urine output ([4]; DN (diabetic) rats + AKF-PD 500 mg/kg per day p.o., 4 weeks, 24 h urine, mean ± SEM (n = 6)): 15.25 ± 1.75 mL
Blood urea nitrogen [4, 10]: 18.88 ± 1.50 mg/dL
Serum creatinine [4, 10]: 0.75 ± 0.13 mg/dL
Urinary albumin excretion [4, 10]: 6.10 ± 0.23 mg/dL
renal dysfunction in diabetic rats ([4]; diabetic rats, 500 mg/kg per day from 4 to 8 weeks): significantly attenuated
Tubulointerstitial injury score (TIS) ([5]; Day 7): 2.64 ± 0.79 #
Tubulointerstitial injury score (TIS) ([5]; Day 15): 3.82 ± 0.43 #
renal injury (tubulointerstitial injury scores and interstitial fibrosis expansion) ([5]; P<0.05): ameliorated
reduction of TGF-β protein expression ([6]; Day 7, UUO rats): 55%
reduction of TGF-β protein expression ([6]; Day 15, UUO rats): 71%
proliferation of rat renal fibroblasts [7]: inhibit the proliferation

Cc1ccc(=O)n(-c2ccccc2)c1 [PFD, pirfenidone, reference compound]
LPS-induced p38 activation (phosphorylation) [1]: significantly blocked
total p38 protein levels [1]: No effects
inhibition of LPS-stimulated TNF-α mRNA synthesis [2]: Approximately 50%
inhibition on LPS-stimulated TNF-α mRNA synthesis [2]: dose-dependent inhibition
effect on proteinuria ([8]; clinical data, open-label trial): does not have any effect
monthly deterioration in GFR (median) ([8]; with pirfenidone therapy, 18 patients, median of 13-month treatment, baseline period −0.61): −0.45 ml/min per 1.73 m^2
urinary protein excretion [9]: caused a decline
